Results on four compounds are retold here after patent US20260248769A1, “URINATION DISORDER-A[…]” (priority 2023, published 2026).

Each structure is given as a SMILES string. Where only a bound is given, the exact number is not on record here.

The subject of series [1] is partial BOO rats exhibiting overactive bladder. Put plainly: Cystometry in partial bladder outlet obstruction (BOO) rats: voiding interval and frequency of NVC. The series is classed as in vivo, rat. To be noted: for voiding interval, effect of a single agent: up to 2 hours, distigmine 0.1 mg/kg s.c., acotiamide 100 and 200 mg/kg s.c., mirabegron 3 mg/kg i.v. (FIG. 14); for NVC frequency compared with the β3 agonist single administration group: co-administered with mirabegron 3 mg/kg i.v., distigmine 0.1 mg/kg or acotiamide 200 mg/kg s.c. (FIG. 15). Here is the method:
Under isoflurane anesthesia, female rats (strain: Crl:CD (SD), 6 weeks old, Jackson Laboratory Japan, Inc.) were subjected to bladder outlet obstruction surgery to prepare partial bladder outlet obstruction (BOO) rats. The sham-operated group was operated similarly except for the partial BOO. Six weeks after surgery, cystometry was performed while awake. A polyethylene catheter (Becton Dickinson: PE50) for cystometry was inserted into and indwellingly placed in the bladder. The catheter indwelling in the bladder was connected to a pressure transducer (Nihon Kohden Corporation) to measure the intravesical pressure. Physiological saline was injected into the bladder using a syringe pump and changes in intravesical pressure were recorded in PowerLab (ADInstruments).
Distigmine (0.1 mg/kg), acotiamide (100 and 200 mg/kg) or vehicle was subcutaneously administered (5 ml/kg), or a β3-adrenergic receptor agonist (β3 agonist mirabegron, a therapeutic agent for overactive bladder) (3 mg/kg) was intravenously administered (1 mL/kg), and the voiding interval was measured for up to 2 hours.
The β3 agonist mirabegron (3 mg/kg, intravenous administration [1 mL/kg]) was co-administered with distigmine (0.1 mg/kg) or acotiamide (200 mg/kg) by subcutaneous administration (5 mL/kg), and the frequency of NVC was measured.

The subject of the next series is bladder of normal rats. In words: Cystometry (detrusor muscle contraction pressure measurement) in normal rats. The series is classed as in vivo. The note with it: normal male rats, subcutaneous; for bladder contraction pressure during voiding / maximum contraction pressure during voiding: 0 to 90 minutes after administration, acotiamide 30 to 200 mg/kg; for bladder contraction pressure during voiding: distigmine 0.01 to 0.1 mg/kg (FIG. 3); for maximum contraction pressure during voiding: distigmine 0.01 to 0.1 mg/kg (FIG. 4); for bladder compliance: 0 to 90 minutes, acotiamide up to 200 mg/kg, distigmine 0.01 to 0.1 mg/kg (FIG. 6); for tolerability in the cystometry test at the highest dose: highest dose acotiamide 200 mg/kg, distigmine 0.3 mg/kg. Here is the method:
A polyethylene catheter (PE50) for cystometry was inserted into and indwellingly placed in the bladder of male rats (strain: Crl:CD (SD), 8 weeks old, Jackson Laboratory Japan, Inc.). The catheter indwelling in the bladder was connected to a pressure transducer (Nihon Kohden Corporation) to measure the intravesical pressure. Physiological saline was injected into the bladder using an infusion pump, and changes in intravesical pressure were recorded on a polygraph system (RMT-1000, Nihon Kohden Corporation) and an analysis system (Lab Chart Pro, ADInstruments). Changes in detrusor muscle contraction pressure when distigmine (0.01 to 0.3 mg/kg), acotiamide (3 to 200 mg/kg), or vehicle was subcutaneously administered (5 ml/kg) were measured for 90 minutes.

In a further series the test system is normal rats. In words: Uroflowmetry (urine flow rate measurement) in normal rats. The series is classed as in vivo, rat. The note with it: normal male rats, subcutaneous, measured for 12 hours; acotiamide 30, 100, 200 mg/kg, distigmine 0.1 mg/kg (FIG. 5). The method, then:
Changes in urine flow rate when distigmine (0.1 mg/kg), acotiamide (30, 100, and 200 mg/kg) or vehicle was subcutaneously administered (5 mL/kg) to male rats (strain: Crl:CD (SD), 8 weeks old, Jackson Laboratory Japan, Inc.) were measured for 12 hours. Changes in urine flow rate were recorded using PowerLab (ADInstruments) by placing a digital balance under the voiding measurement cage to cumulatively collect excreted urine in a container on the balance and measure the change in weight.

For series [2], the system named is female rats under urethane anesthesia. Put plainly: Test for confirming tolerability: induction of cholinergic crisis. Type of series: in vivo, rat. To be noted: up to 120 minutes; for induction of cholinergic crisis (hypersecretion, respiratory abnormalities): urethane anesthesia, subcutaneous, distigmine 0.1-0.4 mg/kg, acotiamide 200 and 300 mg/kg.
The test system of a further series is urethra of normal rats. Put plainly: Measurement of LPP (urethral pressure) in normal rats. The series is classed as in vivo, rat. The note with it: spinal cord transected female rats, subcutaneous; acotiamide 30 to 300 mg/kg, distigmine 0.1 mg/kg, bethanechol 3 mg/kg (FIG. 7). The method, then: Using female rats (strain: Crl:CD (SD), 9 weeks old, Jackson Laboratory Japan, Inc.), under isoflurane anesthesia, the spinal cord was transected at the Th8 vertebra, and after ligating and excising the ureters, a catheter (Becton Dickinson: PE-90, PE-50) was inserted and fixed at the bladder dome to prepare the measurement animal. Physiological saline was injected from the catheter, and the maximum intravesical pressure (leak point pressure (LPP)) when leaking from the external urethral opening was recorded by PowerLab (ADInstruments). Changes in leak point pressure when distigmine (0.1 mg/kg), bethanechol (3 mg/kg), acotiamide (30 to 300 mg/kg), or a vehicle was subcutaneously administered (5 mL/kg) were measured.

Series [3] deals with bladder of normal guinea pigs. In words: Cystometry and urine flow rate measurement in normal guinea pigs. Type of series: in vivo, guinea pig. To be noted: male guinea pigs, intravenous, 0 to 30 minutes, acotiamide 0.1 to 10 mg/kg; for bladder contraction pressure during voiding: distigmine 1 mg/kg (FIG. 8); for maximum contraction pressure during voiding: distigmine 1 mg/kg (FIG. 9); for urine flow rate (maximum urine flow rate and average urine flow rate): distigmine 1 mg/kg (FIG. 10, FIG. 11). The method, then: A polyethylene catheter (Becton Dickinson: PE50) was inserted into and fixed to the bladder of a guinea pig (male, strain: Slc: Hartley, 7 weeks old, Japan SLC, Inc.). A catheter indwellingly placed in the bladder was connected to a pressure transducer to measure intravesical pressure. Physiological saline was injected into the bladder using an infusion pump and intravesical pressure was recorded in PowerLab (ADInstruments). The urine flow rate was recorded in PowerLab (ADInstruments) by placing a digital balance under the cage to cumulatively collect excreted urine in a container on the balance and measure the change in weight. Changes in the detrusor muscle contraction pressure and the urine flow rate when distigmine (1 mg/kg), acotiamide (0.1 to 10 mg/kg), or a vehicle was intravenously administered (1 mL/kg) were measured for 30 minutes.

The subject of series [4] is pelvic nerve crush (PNC) rats. In words: Cystometry in underactive bladder model (pelvic nerve crush, PNC) rats. The note with it: PNC female rats, subcutaneous; for detrusor muscle contraction pressure: awake, measured for 60 minutes, acotiamide 30 to 200 mg/kg, distigmine 0.1 mg/kg (FIG. 12); for drug tolerability at the highest dose: highest dose acotiamide 200 mg/kg, distigmine 0.3 mg/kg. The series is classed as in vivo, rat. Here is the method:
Under isoflurane anesthesia, female rats (strain: Crl:CD (SD), 8 weeks old, Jackson Laboratory Japan, Inc.) were subjected to pelvic nerve injury surgery to prepare pelvic nerve crush (PNC) rats. Cystometry was performed while awake, 2 to 4 weeks after surgery. A polyethylene catheter (PE50) for cystometry was inserted into the bladder and indwellingly placed. The catheter indwelling in the bladder was connected to a pressure transducer (Nihon Kohden Corporation) to measure the intravesical pressure. Physiological saline was injected into the bladder using an infusion pump, and changes in intravesical pressure were recorded in a polygraph system (RMT-1000, Nihon Kohden Corporation) (RMT-1000 MG, Miyuki Giken Co., Ltd.) and an analysis system (Lab Chart Pro, ADInstruments).
Changes in detrusor muscle contraction pressure when distigmine (0.01 to 0.3 mg/kg), acotiamide (3 to 200 mg/kg), or vehicle was subcutaneously administered (5 mL/kg) to PNC rats were measured for 60 minutes.

The subject of series [5] is bladder M3 receptor (Chrm3). Put plainly: Bladder M3 receptor expression (real-time PCR Chrm3, Western blotting CHRM3) after repeated administration. The series is classed as in vivo, rat. To be noted: subcutaneous twice daily for two weeks; for Relative gene expression of Chrm3 (Mean ± SE): bladder of normal male rats, real-time PCR, acotiamide 200 mg/kg/day, distigmine 0.2 mg/kg/day; for expression level of the bladder M3 receptor after repeated administration: normal male rats, acotiamide 100 mg/kg, distigmine 0.1 mg/kg per dose (Table 1, FIG. 13). The method, then: Distigmine (0.1 mg/kg), acotiamide (100 mg/kg), or vehicle was subcutaneously administered twice daily for two weeks (5 mL/kg per dose) to normal rats (male, strain: Crl:CD (SD), 8 weeks old, Jackson Laboratory Japan, Inc.), and the bladder was collected. The M3 receptor expression level in the collected bladder was examined by gene quantitative analysis by real-time PCR (Chrm3) and protein expression analysis by Western blotting (CHRM3).
(Quantitative PCR measures a nucleic acid by following its amplification.)

In series [6] the test system is patients with underactive bladder. To be noted: in combination with an α1-receptor blocker, cited from earlier work.

Regarding `Nc1nc(CC(=O)Nc2ccc(CCNC[C@H](O)c3ccccc3)cc2)cs1` [mirabegron], the “voiding interval, effect of a single agent” value (shortened to “voiding interval, effect”) in series [1] was “had no effect”.

`CN(CCCCCCN(C)C(=O)Oc1ccc[n+](C)c1)C(=O)Oc1ccc[n+](C)c1` [Distigmine]: in the series on bladder of normal rats, the “bladder contraction pressure during voiding” value is “increased”, the “maximum contraction pressure during voiding” value was “increased”, the bladder compliance result is recorded as “significantly reduced” and the “tolerability in the cystometry test at the highest dose” value is given as “induced cholinergic crisis”. Moreover, in the series with normal rats, the urine flow rate entry was “decreased”. Moreover, the “death (animals)” value in [2] (0.2 mg/kg subcutaneous) is on record as 1 out of 3. Besides, the “death (animals)” value in [2] (0.3 mg/kg subcutaneous) is 5 out of 6. Also, in [2] (0.4 mg/kg subcutaneous), the “death (animals)” value was 3 out of 3. Also, the “induction of cholinergic crisis (hypersecretion, respiratory abnormalities)” value in [2] is on record as “induced”. Moreover, in the series with urethra of normal rats, the “leak point pressure (urethral pressure)” value is reported as “did not change”. For the same compound, in [3], the “bladder contraction pressure during voiding” value is “increased”; the “maximum contraction pressure during voiding” value was “increased”; the “urine flow rate (maximum urine flow rate and average urine flow rate)” value is “decreased”. Moreover, in [4], the “detrusor muscle contraction pressure” value is reported as “increased” and the “drug tolerability at the highest dose” value is recorded as “cholinergic crisis”. In series [5], the “Relative gene expression of Chrm3 (Mean ± SE)” value worked out at 79.1 ± 11.8 and the “expression level of the bladder M3 receptor after repeated administration” value was “reduced”. In [1], the “NVC frequency compared with the β3 agonist single administration group” value is listed as “increased” and the “voiding interval, effect” value is “significantly shortened”.

As for `COc1cc(O)c(C(=O)Nc2nc(C(=O)NCCN(C(C)C)C(C)C)cs2)cc1OC` [Acotiamide, N-[2-[bis(1-methylethyl)amino]ethyl]-2-[(2-hydroxy-4,5-dimethoxybenzoyl)amino]thiazole-4-carboxamide], in the series with bladder of normal rats, the “bladder contraction pressure during voiding” value is “increased”, the “maximum contraction pressure during voiding” value is reported as “increased”, the bladder compliance result is on record as “did not affect” and the “tolerability in the cystometry test at the highest dose” value is “well tolerated”. Besides, the “action on bladder contraction pressure, 200 mg/kg group compared with 30 and 100 mg/kg groups” value in the series with bladder of normal rats (200 mg/kg) is on record as “extremely strong”. Further, the urine flow rate entry with normal rats was “increasing”. Also, the death cases result in series [2] (200 and 300 mg/kg subcutaneous) is “no death cases”. Besides, the “induction of cholinergic crisis (hypersecretion, respiratory abnormalities)” value in [2] is listed as “did not induce”. In the series on urethra of normal rats, the “leak point pressure (urethral pressure)” value is “did not change”. Moreover, in series [3], the “bladder contraction pressure during voiding” value is “increased”; the “maximum contraction pressure during voiding” value is given as “increased”; the “urine flow rate (maximum urine flow rate and average urine flow rate)” value is reported as “increasing”. Also, in series [4], the “detrusor muscle contraction pressure” value is recorded as “increased” and the “drug tolerability at the highest dose” value is “good tolerability”. For the same compound, the “action on the detrusor muscle contraction pressure, 200 mg/kg group compared with 30 and 100 mg/kg groups” value in [4] (200 mg/kg) is “extremely strong”. Further, in series [5], the “Relative gene expression of Chrm3 (Mean ± SE)” value is reported as 107.0 ± 12.9 and the “expression level of the bladder M3 receptor after repeated administration” value is “did not reduce”. In [1], the “NVC frequency compared with the β3 agonist single administration group” value is “similar” and the “voiding interval, effect” value is given as “had no effect”. Moreover, in series [6] (100 mg orally 3 times a day for 2 weeks), the “decrease in residual urine volume” value is on record as “a sufficient decrease in residual urine volume was not obtained”. In [6] (100 mg orally three times a day for two weeks), the “mean value of residual urine volume after administration” value was at least 100 mL.

With `CC(C[N+](C)(C)C)OC(N)=O` (stereo not drawn) [bethanechol], in the series with urethra of normal rats, the “leak point pressure (urethral pressure)” value is reported as “increase”.
